Experimental data from US6506797B1, “Substituted phenylpropionic acid derivatives as agonists to human peroxisome proliferator-activated receptor (PPAR) α” (Kyorin Pharmaceutical Co., Ltd., priority 1999, dated 2003).

Experiments:
[1] = biological target: T1, human peroxisome proliferator-activated receptor (PPAR)α (Homo sapiens, UniProt Q07869); test: Binding assay to human PPARα (His-hPPARα-LBD, [3H] ligand); set-up: expressed in transfected cells
T1 sequence (Q07869 239-466 limits assumed): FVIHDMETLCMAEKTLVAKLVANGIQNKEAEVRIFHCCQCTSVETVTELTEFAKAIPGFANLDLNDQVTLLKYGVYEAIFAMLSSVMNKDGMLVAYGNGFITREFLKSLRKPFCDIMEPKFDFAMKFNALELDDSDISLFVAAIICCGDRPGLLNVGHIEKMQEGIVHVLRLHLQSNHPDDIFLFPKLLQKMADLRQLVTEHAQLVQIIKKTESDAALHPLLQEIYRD
Description: Binding assay to human peroxisome proliferator-activated receptor (PPAR)α
A plasmid that eXpresses protein of human PPARα-ligand binding domain attached with histidine tag (His-hPPARα-LBD) was cultured by infecting to Escherichia coli (JM-109) and aimed protein was recovered and purified. [^3H]-5-[(2,4-dioxothiazolidine-5-yl)methyl]-2-methoxy-N-[[4-(trifluoromethyl)phenyl]methyl]benzamide (Amasham), testing compound and (8S)-HETE being control compound were incubated for 45 minutes at room temperature at various concentrations together with His-hPPARα-LBD protein in 10 mmol/l Tris hydrochloride buffer (pH 7.4) containing 50 mmol/l potassium chloride and 10 mmol/l dithiothreitol. After the reaction, amount of [^3H]-5-[(2,4-dioxothiazolidine-5-yl)methyl]-2-methoxy-N-[[4-(trifluoromethyl)phenyl]methyl]benzamide was determined by a liquid scintillation counter.

[2] = biological target: T1, human peroxisome proliferator-activated receptor (PPAR)α; test: Transactivation assay for human PPARα (CHO cells, luciferase reporter); type: cell-based; set-up: expressed in transfected cells; host or cells: CHO cells
From the text: Transactivation assay for human peroxisome proliferator-activated receptor (PPAR)α
To CHO cells cultured in a Dulbecco-modified Eagle's medium containing 10% delipidated fetal calf serum (FCS/DMEM), receptor plasmid that eXpresses fused protein of DNA-binding domain being transcription factor of yeast with ligand-binding domain of human type PPARα (Biochemistry, 1993, 32, 5598) its reporter plasmid (STRATAGENE Corp.), and luciferase plasmid of Renilla (Promega Corp.) as an internal standard were cotransfected with lipofectamine in the serum-free state. Thereafter, testing compound and (8S)-HETE being control compound were added to 10% FCS/DMEM and both luciferase activities were measured after 24 hours, which were corrected with internal standard.
Test of transcription activation on human peroxisome proliferator-activated receptor (PPAR)α
The test of transcription activation on human peroxisome proliferator-activated receptor (PPAR)α shown in Test example 1 was performed to obtain results shown in Table 19.

SD strain male rats = test: Test on lipid-lowering action in fructose-loaded-diet rats; type: in vivo; conditions: versus vehicle control
Description: Test on Lipid-lowering Action
After SD strain male rats (Nippon Charles Liver) were bred from 8-(weeks old) with feed (Nippon Clear), test was started from 11-(weeks old). After (fasting) for 2 days, testing compound and Bezafibrate (30 mg/kg), being control compound, suspended into 0.5% solution of arabic gum were administered orally once a day for continuous 4 days. For the feed during administration period, AIN-93M modified fructose-loaded diet (Oriental Yeast) was used. After administration for 4 days, blood was collected from (trial) vein and the blood levels of triglyceride, total cholesterol, and free fatty acid were determined by enzymatic method.
The lowering rate of triglyceride in blood, overall cholesterol and free fatty acid was calculated, respectively, by determining the proportion of a figure obtained by subtracting average level of triglyceride in blood (or, average level of (total) cholesterol or level of free fatty acid) of dosage group from average level of triglyceride in blood (or, average level of (total) cholesterol or level of free fatty acid) of vehicle control group to average level of triglyceride in blood (or, average level of overall cholesterol or level of free fatty acid) of vehicle control group.

[3] = Table 19 (Test example 4), method of Test example 1, read-out: Transcriptional activity EC50
[4] = 30 mg/kg orally once a day for 4 days
[5] = 10 mg/kg orally once a day for 4 days

SMILES	melting point [°C]	EC50 [1] [nM]	EC50 [2] [nM]	also measured
CCCCC/C=C\C/C=C\C=C\[C@@H](O)C/C=C\CCCC(=O)O [(8S) HETE, (8S)-HETE, reference compound]	–	–	–	EC50 ([1]; His-hPPARα-LBD, 45 minutes at room temperature, pH 7.4, read-out: Binding activity EC50): 170 nM; EC50 ([2]; Table 17, CHO cells, human PPARα LBD fusion, luciferase after 24 hours, read-out: Transcriptional activity EC50): 1300 nM
CCC[C@@H](Cc1ccc(OC)c(C(=O)NCc2ccc(Oc3ccc(F)cc3)cc2)c1)C(=O)O [Example 179]	126 to 127	–	–	EC50 [2, 3]: 9.2 nM
COc1ccc(CC(OC)C(=O)O)cc1C(=O)NCc1ccc(C(F)(F)F)cc1 (stereo not drawn) [Example 24]	161 to 163	560	180	–
CCC(Cc1ccc(OC)c(C(=O)NCc2ccc(-c3ccccc3)cc2)c1)C(=O)O (stereo not drawn) [Example 22]	158.5 to 159.5	430	110	–
CC(C)(Oc1ccc(CCNC(=O)c2ccc(Cl)cc2)cc1)C(=O)O [Bezafibrate, reference compound]	–	–	–	Lowering rate (%) Free fatty acid (SD strain male rats; [4]): 37%; Lowering rate (%) Total cholesterol (SD strain male rats; [4]): 49%; Lowering rate (%) Triglyceride in blood (SD strain male rats; [4]): 64%
CC[C@@H](Cc1ccc(OC)c(C(=O)NCc2ccc(Oc3ccc(F)cc3)cc2)c1)C(=O)O [Example 174, (S)-(+)-2-ethyl-3-[4-methoxy-3-[N-[(4-fluorophenoxyphenyl)methyl]carbamoyl]phenyl]propanoic acid]	–	–	–	EC50 [2, 3]: 24 nM
CCC[C@@H](Cc1ccc(OC)c(C(=O)NCc2ccc(Oc3ccccc3)cc2)c1)C(=O)O [Example 178]	85 to 86	–	–	EC50 [2, 3]: 94 nM
COc1ccc(CC(C)(C)C(=O)O)cc1C(=O)NCc1ccc(C(F)(F)F)cc1	151 to 152	–	–	–

Further lines, with some results ahead:

melting point [°C]	EC50 [1] [nM]	EC50 [2] [nM]	SMILES	also measured
128 to 130	–	–	CC[C@@H](Cc1ccc(OC)c(C(=O)NCc2ccc(C(F)(F)F)cc2)c1)C(=O)O	–
128 to 130	–	–	CCC(Cc1ccc(OC)c(C(=O)NCc2ccc(C(F)(F)F)cc2)c1)C(=O)O (stereo not drawn) [46]	–
144.5 to 146.5	190	11.5	CCC(Cc1ccc(OC)c(C(=O)NCc2ccc(C(F)(F)F)cc2)c1)C(=O)O (stereo not drawn) [Example 20, 2-Ethyl-3-[4-methoxy-3-[N-[[4-(trifluoromethyl)phenyl]-methyl]carbamoyl]phenyl]propanoic acid]	Lowering rate (%) Free fatty acid (SD strain male rats; [5]): 77%; Lowering rate (%) Total cholesterol (SD strain male rats; [5]): 25%; Lowering rate (%) Triglyceride in blood (SD strain male rats; [5]): 53%; Lowering rate (%) Free fatty acid (SD strain male rats; [4]): 53%; Lowering rate (%) Total cholesterol (SD strain male rats; [4]): 55%; Lowering rate (%) Triglyceride in blood (SD strain male rats; [4]): 56%
155 to 156	840	200	COc1ccc(CC(C)C(=O)O)cc1C(=O)NCc1ccc(C(F)(F)F)cc1 (stereo not drawn) [Example 30]	–
–	740	24	CCC(Cc1ccc(OC)c(C(=O)NCc2ccc(Oc3ccccc3)cc2)c1)C(=O)O (stereo not drawn) [Example 23]	–
